The values that follow come from patent US11479560B2, “OX2R compounds” (Board of Regents, The University of Texas System, priority 2018, dated 2022).

Series [1] can be described thus: Plasma and brain PK (IV / IP dosing).
Series [2] can be described thus: BBB penetration (method not described). The conditions noted are these: brain / plasma, iv, 5 mg/kg; read-out: unlabelled value after the PK data (matches brain/plasma AUClast ratio, 5mpk IV).
A further series is described as follows: Microsomes stability. The class given is in vitro ADME.
A short description of series [3]: Plasma and brain PK (5 mg/kg IV). The class given is in vivo. The conditions noted are these: female CD-1 mice; for Tmax / Cmax / AUC(0-t): mouse; for AUC(0-t): read-out: Plasma AUClast.
A short description of the next series: Solubility remark. The format is physicochemical. The conditions noted are these: remark in words.
A further series in a line: in vitro. As to conditions: human, Caco-2.
Setting [4] is: brain, read-out: Brain Tmax (converted).

The Cmax is the maximum level reached in the sampled fluid or tissue. What is called Tmax is the time from dosing to the highest level. `Br.COCC(Cc1ccc(C)cc1)n1c(=N)n(C(C)c2ccc(C)cc2)c2cccnc21` (single isomer, unassigned) [WZ-II-149]: the Cl_F_obs in series [1] (Brain PK, 5 mg/Kg (5mpk) IV) was 1491.875 mL/min; in series [1] (Brain PK, 10 mpk IP), 24837.56 mL/min; in series [1] (Plasma PK, 5 mg/Kg (5mpk) IV) it was 1689.5566 mL/min; in series [1] (Plasma PK, 10 mpk IP) it was 3706.43 mL/min. Moreover, the Vz_F_obs in series [1] (Brain PK, 5 mg/Kg (5mpk) IV) is 286490.1 mL; in series [1] (Brain PK, 10 mpk IP), 2306714 mL; in series [1] (Plasma PK, 5 mg/Kg (5mpk) IV) it was 101565.51 mL; in series [1] (Plasma PK, 10 mpk IP) it was 208114 mL,. The HL_Lambda_z was 64.37 min in series [1] (Brain PK, 10 mpk IP) and 38.92 min in series [1] (Plasma PK, 10 mpk IP). Moreover, the AUC(0-t) in series [1] (brain, ip, 10 mg/kg) is 134 ng·h/mL; in series [1] (brain, iv, 5 mg/kg) it was 1280 ng·h/mL; in series [1] (plasma, ip, 10 mg/kg) it was 1000 ng·h/mL; in series [1] (plasma, iv, 5 mg/kg), 1130 ng·h/mL. Moreover, the Cmax in series [1] (brain, ip, 10 mg/kg) worked out at 77.8 ng/mL; in series [1] (brain, iv, 5 mg/kg) it was 1300 ng/mL; in series [1] (plasma, ip, 10 mg/kg) it was 638 ng/mL; in series [1] (plasma, iv, 5 mg/kg), 1050 ng/mL. The Tmax in series [1] (brain, ip, 10 mg/kg) was 10 min; in series [1] (brain, iv, 5 mg/kg) it was 10 min; in series [1] (plasma, ip, 10 mg/kg) it was 10 min; in series [1] (plasma, iv, 5 mg/kg), 10 min. The half-life in series [1] (brain, iv, 5 mg/kg) was determined as 133 min; in series [1] (plasma, iv, 5 mg/kg), 41.7 min. Also, in series [2], the Kp turned out to be 1.13.
On to `Br.Cc1ccc(CC(C(=O)N2CC(C#N)C2)n2c(=N)n(C(C)c3ccc(C)cc3)c3cccnc32)cc1` (single isomer, unassigned) [WZ-II-253], for which, in series [1] (Brain PK, 5 mg/Kg (5mpk) IV), the Cl_F_obs was 9.5 mL/min and the Vz_F_obs is recorded as 642 mL,. In series [1] (Plasma PK, 5 mg/Kg (5mpk) IV), the Cl_F_obs is listed as 3.86 mL/min and the Vz_F_obs was determined as 221 mL. In addition, in series [1] (brain, iv, 5 mg/kg), the AUC(0-t) is 209 ng·h/mL, the peak concentration (Cmax) was found to be 218 ng/mL, the Tmax was 10 min and the half-life was found to be 47 min. Moreover, in series [1] (plasma, iv, 5 mg/kg), the AUC(0-t) is 518 ng·h/mL, the highest level (Cmax) was 651 ng/mL, the time of peak concentration (Tmax) was determined as 10 min and the half-life was 40 min.
One may read the microsomal CLint as a measure of how fast metabolising enzymes remove a compound, apart from limits set by blood flow. A high value points to faster metabolism. With `COCC(Cc1ccc(C)cc1)n1c(=N)n(C(c2ccc(C)cc2)C2CC2)c2ccccc21` (single isomer, unassigned) [ww6-61], in “Microsomes stability”, the intrinsic clearance (microsomal CLint) was found to be 17 µL/min/mg. The half-life in the series “Microsomes stability” (read-out: Microsomes stability T1/2) was 19 min. Also, in series [3] (brain), the “Brain AUClast” value amounted to 38968.815 ng·min/mL, the “Brain Cmax” value is given as 143.31 ng/mL and the “Brain HL_Lambda_z” value is on record as 134.1 min. Also, the Tmax in series [3] (setting [4]) is 30 min. In series [3] (plasma), the Cmax is 841 ng/mL, the AUC(0-t) amounted to 986 ng·h/mL, the “Plasma Cl_F_obs” value is 1.922 mL/min and the “Plasma HL_Lambda_z” value amounted to 74.04 min. Besides, the “Plasma Vz_F_obs” value in series [3] (plasma) is 205.3 mL. For the same compound, the Tmax in series [3] (plasma, read-out: Plasma Tmax) stood at 10 min.
In series [1] (Brain PK, 5 mg/Kg (5mpk) IV), `Br.Cc1ccc(C[C@@H](C(=O)N2CC3(COC3)C2)n2c(=N)n(C(C)c3ccc(C)cc3)c3ccccc32)cc1` (stereo partly drawn) [WZ-II-151, (2S)-2-(2-imino-3-(1-(p-tolyl)ethyl)-2,3-dihydro-1H-benzo[d]imidazol-1-yl)-1-(2-oxa-6-azaspiro[3.3]heptan-6-yl)-3-(p-tolyl)propan-1-one] gave a Cl_F_obs of 22.9 mL/min and a Vz_F_obs of 8876 mL. In series [1] (Plasma PK, 5 mg/Kg (5mpk) IV), the Cl_F_obs turned out to be 2.39 mL/min and the Vz_F_obs is on record as 453 mL. For the same compound, in series [1] (brain, iv, 5 mg/kg), the AUC(0-t) is 93.1 ng·h/mL, the concentration peaked (Cmax) at 22.7 ng/mL, the time of peak concentration (Tmax) is 10 min and the half-life came out at 269 min. Besides, in series [1] (plasma, iv, 5 mg/kg), the AUC(0-t) came to 908 ng·h/mL, the concentration peaked (Cmax) at 869 ng/mL, the time of peak concentration (Tmax) stood at 10 min and the half-life worked out at 131 min.
Regarding `Cc1ccc(Cn2c(=N)n(C(CO)Cc3cc[nH]c(=O)c3)c3ccccc32)cc1` (centres unmarked) [ww4-89], in “Solubility remark”, the solubility entry is “solubility issue along with tauto- meriza- tion, only proton NMR and LC-MS”.
What is called Papp A→B is the apparent permeability from the apical to the basolateral side of a cell layer. Read a high Papp A→B as fast passage. As usually defined, the Papp B→A is how fast a substance crosses the layer from the basolateral side. Broadly, the efflux ratio is a quotient of directional permeabilities that is used to spot active efflux. Take `C/N=c1\n(Cc2ccc(C)cc2)c2ccccc2n1C(CO)Cc1ccc(C)cc1` (centres unmarked) [ww4-276]: in “in vitro”, the apical-to-basolateral permeability (Papp A→B) was found to be 2.19 ×10⁻⁶ cm/s, the apparent permeability from basolateral to apical (Papp B→A) was determined as 5.47 ×10⁻⁶ cm/s and the efflux ratio worked out at 2.5.
On to `Cc1ccc(CC(CNC(=O)CO)n2c(=N)n([C@@H](C)c3ccc(C)cc3)c3ccccc32)cc1` (some centres unmarked) [ww5-189], for which, in series [3] (brain), the “Brain AUClast” value amounted to 11291.545 ng·min/mL, the “Brain Cmax” value amounted to 15.29 ng/mL and the “Brain HL_Lambda_z” value stood at 728.6 min. The Tmax in series [3] (setting [4]) is 30 min. Besides, in series [3] (plasma), the peak level (Cmax) was 600 ng/mL, the AUC(0-t) turned out to be 691 ng·h/mL, the “Plasma Cl_F_obs” value amounted to 2.72 mL/min and the “Plasma HL_Lambda_z” value was found to be 230.4 min. In series [3] (plasma), the “Plasma Vz_F_obs” value is listed as 904.1 mL. In series [3] (plasma, read-out: Plasma Tmax), the time to peak (Tmax) is 10 min.
In “in vitro”, `Cc1ccc(CC(CNC(=O)CF)n2c(=N)n(Cc3ccc(C)cc3)c3ccccc32)cc1` (centres unmarked) [ww5-308] came in with an apparent permeability from apical to basolateral (Papp A→B) of 3.05 ×10⁻⁶ cm/s and an apparent permeability from basolateral to apical (Papp B→A) of 8.72 ×10⁻⁶ cm/s.
